According to patent publication US4473554A, “Bestatin-related compounds as immunopotentiator” (Zaidan Hojin Biseibutsu Kagaku Kenkyu Kai, priority 1982, dated 1984):
In brackets after ≈: the same amount, converted by molar mass.

Assays:
aminopeptidase B = biological target: T1, aminopeptidase B (Rattus norvegicus, UniProt O09175); assay: aminopeptidase B-inhibiting activity (modified Hopsu method, arginine β-naphthylamide substrate); format: biochemical; conditions: 37° C., pH 7.0, 30 minutes
T1 sequence (O09175 1-650): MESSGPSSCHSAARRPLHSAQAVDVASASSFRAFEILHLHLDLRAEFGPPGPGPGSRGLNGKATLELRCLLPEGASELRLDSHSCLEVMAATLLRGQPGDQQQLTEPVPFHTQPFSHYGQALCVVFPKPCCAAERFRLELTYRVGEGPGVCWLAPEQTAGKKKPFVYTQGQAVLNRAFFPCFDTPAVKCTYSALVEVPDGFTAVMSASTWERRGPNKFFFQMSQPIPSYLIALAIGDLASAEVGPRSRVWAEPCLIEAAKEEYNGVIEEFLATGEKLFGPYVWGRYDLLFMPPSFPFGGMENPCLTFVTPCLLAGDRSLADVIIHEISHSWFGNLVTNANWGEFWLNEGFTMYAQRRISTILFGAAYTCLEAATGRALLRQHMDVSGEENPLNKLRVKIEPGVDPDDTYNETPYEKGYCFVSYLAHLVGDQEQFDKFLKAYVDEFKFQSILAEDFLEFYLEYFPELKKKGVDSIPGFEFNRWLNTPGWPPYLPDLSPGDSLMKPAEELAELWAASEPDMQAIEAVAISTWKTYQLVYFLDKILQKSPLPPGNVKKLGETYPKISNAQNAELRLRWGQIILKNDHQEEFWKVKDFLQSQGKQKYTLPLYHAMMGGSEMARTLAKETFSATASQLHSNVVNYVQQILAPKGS
Method: The aminopeptidase B-inhibiting activity was determined according to a modification of the method of V. K. Hopsu et al. described in the "Archives of Biochemistry and Biophysics" Vol. 114, 557 (1966). Thus, a mixture of 0.8 ml of 0.1 mM of (S)-arginine β-naphthylamide and 1.0 ml of 0.1M Tris-hydrochloride buffer (pH 7.0) was admixed with 0.7 ml of 0.1M Tris-hydrochloride buffer (pH 7.0) containing the test compound and then heated at 37° C. for 3 minutes. […] After the reaction at 37° C. for 30 minutes, the reaction solution was admixed with 0.6 ml of 0.1M acetate buffer (pH 4.2) containing 1.0 mg/ml of diazonium salt of o-aminoazotoluene (Garnet GBC) and 1.0% of a surfactant "Tween" 20 (a registered trademark) to stop the enzymatic reaction and then allowed to stand at ambient temperature for 15 minutes. After this, absorbance (a) at 525 nm of the reaction solution was measured by spectrophotometer. For the control, the above procedure was repeated without the test compound and the adsorbence (b) was measured. Percentages for inhibition to aminopeptidase B were calculated according to the equation: [formula] Inhibition percentages at various concentrations of the test compound were measured, and from the values of inhibition percentages measured 50% Inhibition Concentration (IC50) was evaluated.

[1] = tested on: D.T.H. response in mice immunized with sheep red blood cell (SRBC); assay: Delayed Type Hypersensitivity (D.T.H.) footpad test in mice immunized with SRBC, Example 2; format: in vivo, mouse; conditions: CDF1 mice, control = 100
Method: This Example describes the tests for evaluation of the immunopotentiating activity of the new compound of this invention.
A suspension of 10^8 sheep red blood cells in 0.05 ml of physiological saline was subcutaneously injected at the time of immunization into the right hind footpad of each CDF1 -mouse under test (female, 8 weeks-aged, 5 mice in each group) to establish D.T.H. Simultaneously to the immunization, […] prepared by dissolving the test compound in physiological saline and then filtering the solution by a micropore filter (pore diameter: 0.22 micrometers). Four days later, 10^8 SRBC were subcutaneously injected into the left […] footpad of each test mouse for elicitation of the D.T.H. response. 24 Hours after the elicitating injection, the increased thickness of the left hind footpad was measured with calipers to estimate the degree of swelling in the footpad. The swelling degree is expressed in term of the values calculated by the equation: [formula] The degree of swelling serves to evaluate the degree of cell-mediated immunity involved. For comparison, a suspension of bestatin dispersed in water was tested in the same way as above.

[2] = tested on: D.T.H. response in tumor-bearing (Sarcoma 180) mice immunized with SRBC; assay: D.T.H. footpad test in Sarcoma 180 tumor-bearing mice immunized with SRBC, Example 23; format: in vivo, mouse; conditions: Sarcoma 180-bearing CDF1 mice
Method: This Example describes the tests for evaluation of the immunopotentiating activity of the new compound of this invention. Thus, the effect of the new compound of cell-mediated immunity was tested according to a known technique of Delayed Type Hypersensitivity (D.T.H.) (see P. H. Lagrange et al. "J. Exp. Med." Vol. 139, 1529-1539 (1974)) using tumor-bearing mice which had been immunized with sheep red blood cell (SRBC) as antigen as inoculated into the footpad of the mice.
Thus, a suspension of 10^8 sheep red blood cells in 0.05 ml of physiological saline was subcutaneously injected at the time of immunization into the right hind footpad of each CDF1 -mouse under test (female, 8 weeks-aged, 6 mice in each group) to which 10^6 cells of the tumor cell, Sarcoma 180 had been inoculated intraperitoneally.
On the same day as the day when the immunization with SRBC was effected, as well as on the subsequent, consecutive four days, the mouse under test were then treated by intraperitoneal administration of 0.05 mg/kg, 0.5 mg/kg or 5 mg/kg per day of the test compound as the solution which was prepared by dissolving the test compound in physiological saline and then filtering the solution by a micropore filter (pore diameter: 0.22 micrometers). Two days after the immunization with SRBC, 10^8 SRBC were subcutaneously injected into the left hind footpad of each test mouse for elicitation of the D.T.H. responde. 24 Hours after the elicitating injection, the increased thickness of the left hind footpad was measured with calipers to estimate the degree of swelling in the footpad. The swelling degree is expressed in term of the values calculated by the equation: [formula] The degree of swelling serves to evaluate the degree of cell-mediated immunity involved. For comparison, a suspension of bestatin dispersed in water was tested in the same way as above.

ICR-strain mice = assay: acute toxicity, intraperitoneal, ICR-strain mice; format: in vivo, mouse; conditions: dosage of 100 mg/kg
Excerpt: In order to estimate the acute toxicity of the compound of the formula (VIII) or (IIId), some of the test compound was intraperitoneally given to ICR-strain mice (in groups each consisting of 6 mice, male, 5 weeks-aged, average body weight 20 g.), when all the tested mice tolerated intraperitoneal administration of (2S,3R)-APHA; (2S)-2-N-[(2'S,3'R)-3'-amino-2'-hydroxy-4'-phenyl-butanoyl]amino-4-methyl- pentanol; (2S)-2-N-[(2'S,3'R)-3'-amino-2'-hydroxy-4'-phenylbutanoyl-(S)-leucyl]amino-4-methyl-pentanol; (2S,3R)-3-amino-2-hydroxy-4-phenylbutanoyl-(S)-leucyl-(S)-leucine; (2S,3R)-3-amino-2-hydroxy-4-phenyl-butanoyl-(S)-leucyl-(S)-arginine; (2S,3R)-3-amino-2-hydroxy-4-phenylbutanoyl-(S)-leucyl-(S)-asparagine; (2R,3R)-3-amino-2-hydroxy-4-phenylbutanoyl-(S)-leucyl-(R)-asparagine; and (2S,3R)-3-amino-2-hydroxy-4-phenylbutanoyl-(S)-leucyl-(R)-arginine at a dosage of 100 mg/kg.

[3] = tested on: D.T.H. response in mice immunized with SRBC as antigen; assay: D.T.H. footpad test in mice immunized with SRBC, Examples 3-6 (dosages per mouse); format: in vivo; conditions: for Degree of swelling: control = 100
Method: The effect of (2S,3R)-AHPA on cell-mediated immunity was tested in the same way in Example 2, namely according to the D.T.H. technique using mice immunized with sheep red blood cell as antigen. Thus, a suspension of 10^8 sheep red blood cells in 0.05 ml of physiological saline were subcutaneously injected at the time of immunization into the right hind footpad of each CDF1 -mouse under test (female, 8 weeks-aged, 5 mice in each group) to establish D.T.H. […] The degree of swelling was evaluated. By way of comparison, bestatin was tested in the same way as above. […] The effect of (2S,3R)-AHPA on the D.T.H. response was estimated in the same manner as in the above procedure (A) of Example 3 by orally administering 1 mcg/mouse, 0.1 mcg/mouse or 0.01 mcg/mouse of (2S,3R)-AHPA to each mouse under test. […] The effect of the mode of administering (2S,3R)-AHPA on the D.T.H. response was estimated in the same manner as in the procedure (A) of Example 3, except that the test compound (as aqueous solution) was injected intraperitoneally in stead of being given orally.

`CC(C)C[C@H](NC(=O)[C@@H](O)[C@H](N)Cc1ccccc1)C(=O)N[C@H](CC(N)=O)C(=O)O` [Compound No. 12, (2S,3R)-3-amino-2-hydroxy-4-phenylbutanoyl-(S)-leucyl-(R)-asparagine] gave an IC50 (aminopeptidase B) of 4.7 µg/mL (≈ 11.1 µM), a Degree of swelling ([1]; oral 0.5 mg/kg at immunization) of 133% and a Degree of swelling ([2]; intraperitoneal 0.5 mg/kg/day) of 157%. The “acute toxicity: tolerance of intraperitoneal administration” value (ICR-strain mice) was “tolerated”.

`CC(C)C[C@H](NC(=O)[C@H](CC(C)C)NC(=O)[C@@H](O)[C@H](N)Cc1ccccc1)C(=O)O` [Compound No. 6, (2S,3R)-3-amino-2-hydroxy-4-phenylbutanoyl-(S)-leucyl-(S)-leucine] showed an IC50 (aminopeptidase B) of 0.20 µg/mL (≈ 0.474 µM), a Degree of swelling ([1]; oral 0.5 mg/kg at immunization) of 120% and a Degree of swelling ([2]; intraperitoneal 0.5 mg/kg/day) of 152%.

Work on `CC(C)C[C@H](NC(=O)[C@@H](O)[C@H](N)Cc1ccccc1)C(=O)N[C@H](CCCNC(=N)N)C(=O)O` [Compound No. 10] yielded an IC50 (aminopeptidase B) of 0.39 µg/mL (≈ 0.839 µM), a Degree of swelling ([1]; oral 0.5 mg/kg at immunization) of 134% and a Degree of swelling ([2]; intraperitoneal 0.5 mg/kg/day) of 155%. The “acute toxicity: tolerance of intraperitoneal administration” value (ICR-strain mice) was “tolerated”.

With `CC(C)C[C@H](NC(=O)[C@@H](O)[C@H](N)Cc1ccccc1)C(=O)N[C@@H](CCCNC(=N)N)C(=O)O` [Compound No. 5, (2S,3R)-3-amino-2-hydroxy-4-phenyl-butanoyl-(S)-leucyl-(S)-arginine] the IC50 (aminopeptidase B) was 0.11 µg/mL (≈ 0.237 µM), the Degree of swelling ([1]; oral 0.5 mg/kg at immunization) was 135% and the Degree of swelling ([2]; intraperitoneal 5 mg/kg/day) was 147%. The solubility in water (solubility in water) was “soluble in water”.

With `CC(C)C[C@H](NC(=O)[C@@H](O)[C@H](N)Cc1ccccc1)C(=O)O` [Bestatin, (2S, 3R)-3-amino-2-hydroxy-4-phenylbutanoyl-(S)-leucine] the IC50 (aminopeptidase B) was 0.03 µg/mL (≈ 0.0973 µM), the Degree of swelling ([1]; oral 0.05 mg/kg at immunization) was 120-130% and the Degree of swelling ([1]; oral 0.5 mg/kg at immunization) was 140-150%. The “Increase in thickness of footpad (± S.D.)” value (“Increase … (± S.D.)” below) ([3]; Table 3, oral 0.1 mcg/mouse) was 9.3 ± 2.70 × 0.1 mm, the Degree of swelling ([3]; Table 3, oral 0.1 mcg/mouse) was 118% and the “Increase … (± S.D.)” value ([3]; Table 3, oral 1 mcg/mouse) was 10.3 ± 0.96 × 0.1 mm. For the same compound, the Degree of swelling ([3]; Table 3, oral 1 mcg/mouse) was 130%, the “Increase … (± S.D.)” value ([3]; Table 3, oral 10 mcg/mouse) was 12.0 ± 1.25 × 0.1 mm and the Degree of swelling ([3]; Table 3, oral 10 mcg/mouse) was 152%. The “Increase … (± S.D.)” value ([3]; Table 4, oral 1 mcg/mouse) was 10.8 ± 1.08 × 0.1 mm, the Degree of swelling ([3]; Table 4, oral 1 mcg/mouse) was 133% and the “Degree of swelling, Intraperitoneal injection” value ([3]; Table 5, intraperitoneal 1 mcg/mouse) was 128%. The “Degree of swelling, Oral administration” value ([3]; Table 5, oral 1 mcg/mouse) was 133%, the “Increase … (± S.D.)” value ([3]; Table 7, oral 1 mcg/mouse) was 11.6 ± 0.91 × 0.1 mm and the Degree of swelling ([3]; Table 7, oral 1 mcg/mouse) was 133%. For the same compound, the “Increase in thickness of footpad (+ S.D.)” value ([3]; Table 8, oral 1 mcg/mouse) was 10.3 ± 1.36 × 0.1 mm, the Degree of swelling ([3]; Table 8, oral 1 mcg/mouse) was 121% and the Degree of swelling ([2]; intraperitoneal 5 mg/kg/day) was 130%. For the same compound, the solubility in water (solubility in water) was “sparingly soluble in water”.

Work on `CC(C)C[C@H](NC(=O)[C@@H](O)[C@H](N)Cc1ccccc1)C(=O)N[C@@H](CC(N)=O)C(=O)O` [Compound No. 11, (2S,3R)-3-amino-2-hydroxy-4-phenylbutanoyl-(S)-leucyl-(S)-asparagine] yielded an IC50 (aminopeptidase B) of 22.4 µg/mL (≈ 53 µM), a Degree of swelling ([1]; oral 0.5 mg/kg at immunization) of 128% and a Degree of swelling ([2]; intraperitoneal 0.05 mg/kg/day) of 155%.
